Assay results: patent US20230041563A1, “N-(1,3,4-OXADIAZOL-2-YL)ARYLCARBOXAMIDES OR SALTS THEREOF, PREPARATION METHODS, HERBICIDAL COMPOSITIONS AND USES THEREOF” (priority 2018, published 2023)
Like-named read-outs stand apart in the source and are kept apart here.

What was measured:
Type in all cases: in vivo
[1] = tested on: Echinochloa crusgalli; assay: Weeding effect in post-emergence stage (greenhouse pot spray); conditions: for Echinochloa crusgah (activity level): Table 2, dose 500 g a.i./ha
Excerpt: (§1) The activity level criteria for plant damage (i.e., growth control rate) are as follows:
(§2) The above growth control rates are fresh weight control rates.
(§3) Experiment on weeding effect in post-emergence stage: monocotyledonous and dicotyledonous weed seeds (Descurainia sophia, Capsella bursa-pastoris, Abutilon theophrasti, Galium aparine, Stellaria media, Lithospermum arvense, rorippa indica, Alopecurus aequalis, Beckmannia syzigachne, Sclerochloa dura, Phleum paniculatum, Bromus japonicus, Aegilops tauschii, Phalaris arundinacea, Amaranthus retroflexus, Chenopodiaceae, Commelina communis, Sonchus arvensis, convolvulus arvensis, Cirsium setosum, Solanum nigrum, Acalypha australis, Digitaria sanguinalis, Echinochloa crusgalli, Setaria viridis, Setaria glauca, Leptochloa chinensis, Monochoria vaginalis, Sagittaria trifolia, Scirpus juncoides, Cyperus rotundus, Cyperus iria, Cyperus difformis, Fimbristylis, Portulaca oleracea, Xanthium sibiricum, Pharbitis nil) and major crop seeds (wheat, corn, rice, soybean, cotton, oilseed rape, millet, sorghum, potato, sesame, ricinus) were placed in plastic pots filled with soil, then covered with 0.5-2 cm of soil, allowed to grow in a good greenhouse environment. After 2 weeks of sowing, the test plants were treated in the 2 to 3 leaf stage. The tested compounds of the present invention were respectively dissolved in acetone, then added with Tween 80 and 1.5 liter/ha of emulsifiable concentrate of methyl oleate as synergist, diluted with a certain amount of water to obtain a solution with a certain concentration, and sprayed with a spray tower onto the plants. After the application, the plants were cultured for 3 weeks in the greenhouse, and then the experimental results of the weeding were counted. […]

[2] = tested on: Digitaria sanguinalis; assay: as above; conditions: for Digitaria sanguinalis (activity level): Table 2, dose 500 g a.i./ha
Excerpt: as §1, §2, §3

[3] = tested on: Setaria viridis; assay: as above; conditions: Table 3, dose 500 g a.i./ha
Excerpt: as §1, §2, §3

[4] = tested on: Abutilon theophrasti; assay: as above; conditions: Table 2, dose 500 g a.i./ha
Excerpt: as §1, §2, §3

[5] = tested on: weeds; assay: Actual control effects and combined effects of mixtures of active ingredients (i) and (ii), stem-leaf treatment, Gowing method; conditions: 20 days; for pest or weed control at 27 g/ha: (ii) 1.8 g a.i./mu
Procedure: According to the actual control effect and the property of the herbicides, the balance of the formula and other factors, the optimal ratio was determined. In the calculation formula: X represents the fresh weight inhibition rate when the active ingredient (i) is used in an amount of P; and Y represents the fresh weight inhibition rate when the active ingredient (ii) is used in an amount of Q. The statistical results are shown in Tables 9-11 below.

[6] = 480 h, Cyperus difformis, read-out: Control effect of (ii) alone at corresponding dose
[7] = 480 h, Echinochloa phyllopogon, (ii) 15 g a.i./mu, stem-leaf treatment, read-out: Control effect of (ii) alone at corresponding dose
[8] = Echinochloa phyllopogon, (ii) 15 g a.i./mu
[9] = Monochoria vaginalis, (ii) 3 g a.i./mu
[10] = 480 h, Echinochloa phyllopogon, (ii) 0.6 g a.i./mu, stem-leaf treatment, read-out: Control effect of (ii) alone at corresponding dose
[11] = Echinochloa phyllopogon, (ii) 0.6 g a.i./mu

Cc1nnc(NC(=O)c2ccc(C(F)(F)F)c(SCC#N)c2F)o1 [Compound 1-69]
Echinochloa crusgah (activity level) [1]: 5 (Level 5: growth control rate is above 85%)

CCOC[S+]([O-])c1c(C(F)(F)F)ccc(C(=O)Nc2nnc(C)o2)c1F (stereo not drawn) [Compound 1-444]
Echinochloa crusgah (activity level) [1]: 5 (Level 5: growth control rate is above 85%)

Cc1nnc(NC(=O)c2ccc(C(F)(F)F)c([S@@+]([O-])CCC3CC3)c2F)o1 [1-395 (R-configuration)]
Digitaria sanguinahs (activity level) ([2]; Table 3, dose 500 g a.i./ha): 5 (Level 5: growth control rate is above 85%)
Echinochloa crusgali (activity level) ([1]; Table 3, dose 500 g a.i./ha): 5 (Level 5: growth control rate is above 85%)
Setaria viridis (activity level) [3]: 5 (Level 5: growth control rate is above 85%)

CC(C)C[S+]([O-])c1c(C(F)(F)F)ccc(C(=O)Nc2nnco2)c1F (stereo not drawn) [Compound 3-20]
Echinochloa crusgah (activity level) [1]: 5 (Level 5: growth control rate is above 85%)

C#CCSc1c(C(F)(F)F)ccc(C(=O)Nc2nnc(C)o2)c1F [Compound 1-43]
Echinochloa crusgah (activity level) [1]: 5 (Level 5: growth control rate is above 85%)

Cc1nnc(NC(=O)c2ccc(C(F)(F)F)c([S+]([O-])CCO)c2F)o1 (stereo not drawn) [Compound 1-429]
Abutilion theophrasti (activity level) [4]: 5 (Level 5: growth control rate is above 85%)
Digitaria sanguinalis (activity level) [2]: 5 (Level 5: growth control rate is above 85%)
Echinochloa crusgah (activity level) [1]: 5 (Level 5: growth control rate is above 85%)

Cc1nnc(NC(=O)c2ccc(C(F)(F)F)c(SC#N)c2F)o1 [Compound 1-68]
Echinochloa crusgah (activity level) [1]: 5 (Level 5: growth control rate is above 85%)

Cc1nnc(NC(=O)c2ccc(C(F)(F)F)c(SCCF)c2F)o1 [Compound 1-48]
Digitaria sanguinalis (activity level) [2]: 5 (Level 5: growth control rate is above 85%)
Echinochloa crusgah (activity level) [1]: 5 (Level 5: growth control rate is above 85%)

Cc1nnc(NC(=O)c2ccc(C(F)(F)F)c(S(=O)(=O)C(C)(C)C)c2F)o1 [Compound 1-138]
Digitaria sanguinalis (activity level) [2]: 5 (Level 5: growth control rate is above 85%)
Echinochloa crusgah (activity level) [1]: 5 (Level 5: growth control rate is above 85%)

CC(=O)Sc1c(C(F)(F)F)ccc(C(=O)Nc2nnc(C)o2)c1F [Compound 1-70]
Echinochloa crusgah (activity level) [1]: 5 (Level 5: growth control rate is above 85%)

Cc1nnc(NC(=O)c2ccc(C(F)(F)F)c([S+]([O-])C3CCCCC3)c2F)o1 (stereo not drawn) [Compound 1-394]
Echinochloa crusgah (activity level) [1]: 5 (Level 5: growth control rate is above 85%)

Cc1nnc(NC(=O)c2ccc(C(F)(F)F)c([S+]([O-])CCCO)c2F)o1 (stereo not drawn) [Compound 1-430]
Abutilion theophrasti (activity level) [4]: 5 (Level 5: growth control rate is above 85%)
Digitaria sanguinalis (activity level) [2]: 5 (Level 5: growth control rate is above 85%)
Echinochloa crusgah (activity level) [1]: 5 (Level 5: growth control rate is above 85%)

CCC(CC)Nc1c([N+](=O)[O-])cc(C)c(C)c1[N+](=O)[O-] [Pendimethalin]
pest or weed control at 27 g/ha [5, 6]: 6.3%
pest or weed control at 450 g/ha ([5]; 480 h, Cyperus difformis, (ii) 30 g a.i./mu, stem-leaf treatment, read-out: Control effect of (ii) alone at corresponding dose): 40.3%
Control effect of (ii) alone at corresponding dose ([5]; Cyperus difformis, (ii) 30 g a.i./mu): 40.3%

CCCCOCN(C(=O)CCl)c1c(CC)cccc1CC [Butachlor]
pest or weed control at […] [5, 7]: 19.3%
pest or weed control at 450 g/ha ([5]; 480 h, Echinochloa phyllopogon, (ii) 30 g a.i./mu, read-out: Control effect of (ii) alone at corresponding dose): 39.7%
Control effect of (ii) alone at corresponding dose [5, 8]: 19.3%

CS(=O)(=O)c1ccc(C(=O)C2=C(Sc3ccccc3)C3CCC(C3)C2=O)c(Cl)c1 (stereo not drawn) [Benzobicylon]
Control effect of (ii) alone at corresponding dose ([5]; Leptochloa chinensis, (ii) 3 g a.i./mu): 26.8%
Control effect of (ii) alone at corresponding dose ([5]; Leptochloa chinensis, (ii) 3 g a.i./mu, stem-leaf treatment): 26.8%
Control effect of (ii) alone at corresponding dose ([5]; Leptochloa chinensis, (ii) 15 g a.i./mu): 68.2%
Control effect of (ii) alone at corresponding dose ([5]; Leptochloa chinensis, (ii) 15 g a.i./mu, stem-leaf treatment): 68.2%

CCN(C(=O)n1nnn(-c2ccccc2Cl)c1=O)C1CCCCC1 [Fentrazamide]
Control effect of (ii) alone at corresponding dose [5, 9]: 30.2%
pest or weed control at […] ([5]; Pontederia vaginalis, 480 h, Monochoria vaginalis, (ii) 1.5 g a.i./mu, read-out: Control effect of (ii) alone at corresponding dose): 18.3%
pest or weed control at 45 g/ha ([5]; Pontederia vaginalis, 480 h, Monochoria vaginalis, (ii) 3 g a.i./mu, stem-leaf treatment, read-out: Control effect of (ii) alone at corresponding dose): 30.2%

CSc1nc(NC(C)C)nc(NC(C)C)n1 [Prometryn]
pest or weed control at 9 g/ha [5, 10]: 21.5%
pest or weed control at 300 g/ha ([5]; 480 h, Echinochloa phyllopogon, (ii) 20 g a.i./mu, stem-leaf treatment, read-out: Control effect of (ii) alone at corresponding dose): 68.2%
Control effect of (ii) alone at corresponding dose [5, 11]: 21.5%
Control effect of (ii) alone at corresponding dose ([5]; Echinochloa phyllopogon, (ii) 20 g a.i./mu): 68.2%

CC1=C(c2ccccc2)C(=O)N(C(C)(C)c2cc(Cl)cc(Cl)c2)CO1 [Oxaziclomefone]
pest or weed control at 9 g/ha [5, 10]: 12.5%
pest or weed control at 15 g/ha ([5]; 480 h, Echinochloa phyllopogon, (ii) 1 g a.i./mu, stem-leaf treatment, read-out: Control effect of (ii) alone at corresponding dose): 18.7%
Control effect of (ii) alone at corresponding dose [5, 11]: 12.5%
Control effect of (ii) alone at corresponding dose ([5]; Echinochloa phyllopogon, (ii) 1 g a.i./mu): 18.7%

CCC(Oc1ccc(F)c(C(F)(F)F)c1)C(=O)NCc1ccccc1 (stereo not drawn) [Beflubutamid]
Control effect of (ii) alone at corresponding dose ([5]; Monochoria vaginalis, (ii) 1.5 g a.i./mu): 15.3%
Control effect of (ii) alone at corresponding dose ([5]; Monochoria vaginalis, (ii) 5 g a.i./mu): 40.3%
Control effect of (ii) alone at corresponding dose ([5]; Monochoria vaginalis, (ii) 5 g a.i./mu, stem-leaf treatment): 40.3%

CC(C)N1C(=O)c2ccccc2NS1(=O)=O [Bentazone]
pest or weed control at 27 g/ha [5, 6]: 18.2%
pest or weed control at 135 g/ha ([5]; 480 h, Cyperus difformis, (ii) 9 g a.i./mu, stem-leaf treatment, read-out: Control effect of (ii) alone at corresponding dose): 40.4%
Control effect of (ii) alone at corresponding dose ([5]; Cyperus difformis, (ii) 9 g a.i./mu): 40.4%

CCCCCCCC(=O)Oc1c(Br)cc(C#N)cc1Br [Bromoxynil octanoate]
pest or weed control at 9 g/ha ([5]; 480 h, Sagittaria trifolia L., (ii) 0.6 g a.i./mu, read-out: Control effect of (ii) alone at corresponding dose): 6.4%
pest or weed control at 45 g/ha ([5]; 480 h, Sagittaria trifolia, (ii) 3 g a.i./mu, stem-leaf treatment, read-out: Control effect of (ii) alone at corresponding dose): 12.5%
Control effect of (ii) alone at corresponding dose ([5]; Sagittaria trifolia L., (ii) 3 g a.i./mu): 12.5%

CCNc1nc(NCC)nc(SC)n1 [Simetryn]
pest or weed control at 9 g/ha [5, 10]: 20.8%
pest or weed control at […] [5, 7]: 45.3%
Control effect of (ii) alone at corresponding dose [5, 11]: 20.8%
Control effect of (ii) alone at corresponding dose [5, 8]: 45.3%

Cc1ccccc1CO[C@@H]1C[C@@]2(C(C)C)CC[C@]1(C)O2 (racemic) [Cinmethylin]
pest or weed control at 45 g/ha ([5]; 480 h, Echinochloa phyllopogon, (ii) 3 g a.i./mu, stem-leaf treatment, read-out: Control effect of (ii) alone at corresponding dose): 13.2%
pest or weed control at […] ([5]; 480 h, Echinochloa phyllopogon, (ii) 15 g a.i./mu, read-out: Control effect of (ii) alone at corresponding dose): 54.5%
Control effect of (ii) alone at corresponding dose ([5]; Echinochloa phyllopogon, (ii) 3 g a.i./mu): 13.2%

Sanzuohuangcaotong
Control effect of (ii) alone at corresponding dose [5, 9]: 21.5%
Control effect of (ii) alone at corresponding dose ([5]; Monochoria vaginalis, (ii) 3 g a.i./mu, stem-leaf treatment): 21.5%
Control effect of (ii) alone at corresponding dose ([5]; Monochoria vaginalis, (ii) 6 g a.i./mu): 40.1%
